Measurements published in patent US12365685B2, “Substituted fused aromatic ring derivative, composition and use thereof” (Shenzhen TargetRx, Inc., priority 2019, dated 2025).
Like-named read-outs stand apart in the source and are kept apart here.

How the values were obtained:
Ret wt = Ret wt (Homo sapiens (Human), UniProt P07949); assay: Inhibition of kinase, Ret wt (HTRF KinEASE-TK); type: biochemical
Description: (§1) Ret wt (Carna, Cat. No. 08-159-10 ug), RET (V804M), Active (Signalchem, Cat. No. R02-12GG), HTRF KinEASE-TK kit (Cisbio, Cat. No. 62TK0PEC), CEP-32496 (MCE, Cat. No. HY-15200), ATP (Sigma, Cat. No. A7699), DMSO (Sigma, Cat. No. D8418-1L), DTT (Sigma, Cat. No. D0632), MgCl2 (Sigma, Cat. No. M1028), 384-well plate (Labcyte, Cat. No. P-05525-BC).
(§2) Formulation of compound: The test compounds were dissolved in DMSO to obtain 10 mM stock solutions, which were then serially diluted 3-fold in DMSO to obtain 10 concentrations. At the time of addition, the compound was further diluted 10-fold with buffer.
(§3) In 5× kinase buffer A, Ret wt or RET V804M kinase was mixed with different concentrations of compounds prepared by pre-dilution for 10 minutes. Each concentration was tested in duplicate. The corresponding substrate and ATP were added, and reaction was performed at room temperature for 20 minutes (negative and positive controls were provided: the negative control was a blank control, and the positive control was CEP-32496). After completion of the reaction, detection reagents (reagents in the HTRF KinEASE-TK kit) were added. After incubating for 30 minutes at room temperature, enzyme activity in the presence of various concentrations of the compounds of the present disclosure was determined by Envision microplate reader, and inhibitory activity of different concentrations of the compounds on enzyme activity was calculated. The inhibitory activity of different concentrations of the compounds on enzyme activity was fitted by Graphpad 5.0 software, and the IC50 value was calculated, wherein A indicates IC50 10 nM, B indicates 10 nM<IC50≤50 nM, C indicates 50 nM<IC50≤100 nM, and D indicates IC50>100 nM.

RET V804M = RET V804M (Homo sapiens (Human), UniProt P07949, V804M); assay: Inhibition of kinase, RET V804M (HTRF KinEASE-TK); type: biochemical; conditions: reaction 20 minutes at room temperature
Chain of RET V804M (P07949 29-1114 V804M): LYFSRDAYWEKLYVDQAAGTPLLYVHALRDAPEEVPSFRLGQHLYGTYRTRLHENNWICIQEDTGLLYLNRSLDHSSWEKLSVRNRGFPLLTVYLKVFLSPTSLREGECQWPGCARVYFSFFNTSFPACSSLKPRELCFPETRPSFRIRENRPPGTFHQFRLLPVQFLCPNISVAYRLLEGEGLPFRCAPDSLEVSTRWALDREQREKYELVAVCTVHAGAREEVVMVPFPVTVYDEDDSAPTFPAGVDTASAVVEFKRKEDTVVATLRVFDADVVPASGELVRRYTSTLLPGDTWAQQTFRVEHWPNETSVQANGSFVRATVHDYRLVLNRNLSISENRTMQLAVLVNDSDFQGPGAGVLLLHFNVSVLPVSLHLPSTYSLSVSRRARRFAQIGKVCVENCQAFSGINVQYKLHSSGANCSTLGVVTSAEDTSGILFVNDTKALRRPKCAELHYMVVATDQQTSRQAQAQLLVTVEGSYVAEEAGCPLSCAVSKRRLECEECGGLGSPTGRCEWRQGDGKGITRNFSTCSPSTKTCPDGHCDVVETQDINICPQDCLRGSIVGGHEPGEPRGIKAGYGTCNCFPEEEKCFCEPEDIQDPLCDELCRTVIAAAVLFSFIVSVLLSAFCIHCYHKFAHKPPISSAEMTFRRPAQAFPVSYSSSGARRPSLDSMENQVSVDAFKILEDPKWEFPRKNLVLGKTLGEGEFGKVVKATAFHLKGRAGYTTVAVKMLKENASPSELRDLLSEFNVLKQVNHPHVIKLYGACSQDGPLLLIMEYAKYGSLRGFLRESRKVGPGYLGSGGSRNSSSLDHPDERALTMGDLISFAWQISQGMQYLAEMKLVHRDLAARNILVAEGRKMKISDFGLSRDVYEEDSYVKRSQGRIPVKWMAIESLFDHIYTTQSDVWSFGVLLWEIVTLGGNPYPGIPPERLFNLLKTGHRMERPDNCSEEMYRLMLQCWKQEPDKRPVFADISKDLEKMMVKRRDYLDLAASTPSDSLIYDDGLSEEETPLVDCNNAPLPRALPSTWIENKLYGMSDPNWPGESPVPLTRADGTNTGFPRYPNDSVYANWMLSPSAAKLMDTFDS
Description: as §1, §2, §3

Ba/F3 parental = assay: Cytotoxicity assay, Ba/F3 parental (CellTiter-Glo); type: cell-based; conditions: Mus musculus, BaF3; 72 hrs, CTG
Text: [Worded in the source for another cell line; this cell line is reported under the same test.] (§4) Inhibitory effect of example compounds on the activity of Ba/F3 KIF5B-RET and Ba/F3 FLT3-ITD cells was detected.
(§5) Materials and reagents: fetal bovine serum (FBS) (GIBCO, Cat. No. 10099141), CellTiter-Glo® Luminescent Cell Viability Assay (Promega, Cat #G7572), 96-well clear flat-bottom black-wall plate (Corning®, Cat #3603).
(§6) • 1. Cells in the logarithmic growth phase were harvested and counted with a […]. Cell viability was detected by a trypan blue exclusion method, ensuring that cell viability was 90% or more; • 2. The cell concentration was adjusted to 3000 cells/well; 90 μl of cell suspension was added to each well of the 96-well plate; • 3. The cells in the 96-well plate were incubated overnight under the condition of 37° C., 5% CO2, and 95% humidity. Dilution and Addition of Compound: • 1. 10-fold compound solutions were formulated by 3.16-fold serial dilution starting from a concentration of 10 μM, resulting in 9 concentrations. 10 μL of the compound solutions were added in each well of the 96-well plate seeded with cells in triplicate for each compound concentration; • 2. The cells in the 96-well plate added with compounds were further incubated under the condition of 37° C., 5% CO2, and 95% humidity for 72 hrs, and then CTG analysis was carried out. Plate Reading at the End: • 1. CTG reagent was thawed, and the cell plate was equilibrated at room temperature for 30 minutes; • 2. An equal volume ([…]) of CTG solution was added to each well; • 3. The cell plate was shaken on an orbital shaker for 5 minutes to lyse the cells; • 4. The cell plate was placed at RT for 20 minutes to stabilize the luminescence signal; • 5. Luminescence value was read. Data Processing
(§7) Data were analyzed by GraphPad Prism 5.0 software, and fitted by nonlinear S-curve regression to obtain a dose-response curve, from which IC50 values were calculated, wherein A indicates IC50≤10 nM, B indicates 10 nM<IC50≤50 nM, C indicates 50 nM<IC50≤100 nM, and D indicates IC50>100 nM. cell survival (%)=(Lumtest compound−Lumculture medium control)/(Lumcell control−Lumculture medium control)×100%.

Ba/F3 KIF5B-RET cells = assay: Cytotoxicity assay, Ba/F3 KIF5B-RET (CellTiter-Glo); type: cell-based; conditions: Mus musculus, BaF3; 72 hrs, CTG
Text: as §4, §5, §6, §7

Ba/F3 FLT3-ITD cells = assay: Cytotoxicity assay, Ba/F3 FLT3-ITD (CellTiter-Glo); type: cell-based; conditions: 72 hrs, CTG
Text: as §4, §5, §6, §7

Ba/F3 KIF5B-RET^V804M = assay: Cytotoxicity assay, Ba/F3 KIF5B-RET V804M (CellTiter-Glo); type: cell-based; conditions: Mus musculus, BaF3; 72 hrs, CTG
Text: [Worded in the source for another variant; this variant is reported under the same test.] as §4, §5, §6, §7

Ba/F3 FLT3-ITD^D835Y = assay: Cytotoxicity assay, Ba/F3 FLT3-ITD D835Y (CellTiter-Glo); type: cell-based; conditions: Mus musculus, BaF3; 72 hrs, CTG
Text: [Worded in the source for another variant; this variant is reported under the same test.] as §4, §5, §6, §7

Ba/F3 FLT3-ITD^F691L = assay: Cytotoxicity assay, Ba/F3 FLT3-ITD F691L (CellTiter-Glo); type: cell-based; conditions: Mus musculus, BaF3; 72 hrs, CTG
[1] = HTRF KinEASE-TK, reaction 20 minutes at room temperature, read-out: Ret wt IC50

Chain of Ret wt (P07949 29-1114): as the sequence (P07949 29-1114 V804M) above, with M776V counted along it

Compound | IC50 (Ret wt; [1]) [nM] | IC50 (RET V804M) [nM] | IC50 (Ba/F3 parental) [nM] | IC50 (Ba/F3 KIF5B-RET cells) [nM] | IC50 (Ba/F3 FLT3-ITD cells) [nM] | IC50 (Ba/F3 KIF5B-RET^V804M) [nM] | IC50 (Ba/F3 FLT3-ITD^D835Y) [nM] | IC50 (Ba/F3 FLT3-ITD^F691L) [nM] | IC50 (Ret wt; read-out: IC50 against Ret wt) [nM]
Cn1cc(-c2cnn3c(-c4ccc(NC(=O)Nc5cc(C(F)(F)F)ccc5F)cc4)cnc3c2)cn1 [Compound T-1, 1-(2-fluoro-5-(trifluoromethyl)phenyl)-3-(4-(7-(1-methyl-1H-pyrazol-4-yl)imidazo[1,2-b]pyridazin-3-yl)phenyl)urea] | > 100 | 75.8 | 1090 | 534 | 2.32 | – | – | – | –
Cn1cc(-c2cnn3c(-c4ccc(CC(=O)Nc5cc(C(C)(C)C(F)(F)F)on5)cc4)cnc3c2)cn1 [Compound T-2, 2-(4-(7-(1-methyl-1H-pyrazol-4-yl)imidazo[1,2-b]pyridazin-3-yl)phenyl)-N-(5-(1,1,1-trifluoro-2-methylpropan-2-yl)isoxazol-3-yl)acetamide] | 0.18 | 0.4 | 3270 | 4.91 | 0.79 | 17.9 | 1.22 | 1.43 | –
Cn1cc(-c2cc3ncc(-c4ccc(CC(=O)Nc5cc(C(C)(C)C(F)(F)F)on5)cn4)n3cn2)cn1 [Compound T-3, 2-(6-(7-(1-methyl-1H-pyrazol-4-yl)imidazo[1,2-c]pyrimidin-3-yl)pyridin-3-yl)-N-(5-(1,1,1-trifluoro-2-methylpropan-2-yl)isoxazol-3-yl)acetamide] | 0.13 | 0.21 | 8070 | 51.2 | 0.2 | 125 | 9.08 | 13.5 | –
Cn1cc(-c2cc3ncc(-c4ccc(CC(=O)Nc5cc(C(C)(C)C(F)(F)F)on5)cc4)n3cn2)cn1 [Compound T-4, 2-(4-(7-(1-methyl-1H-pyrazol-4-yl)imidazo[1,2-c]pyrimidin-3-yl)phenyl)-N-(5-(1,1,1-trifluoro-2-methylpropan-2-yl)isoxazol-3-yl)acetamide] | 0.16 | 0.28 | – | 7.17 | 0.49 | – | – | – | –
Cn1cc(Nc2nccn3c(-c4ccc(CC(=O)Nc5cc(C(C)(C)C(F)(F)F)on5)cc4)cnc23)cn1 [Compound T-5, 2-(4-(8-((1-methyl-1H-pyrazol-4-yl)amino)imidazo[1,2-a]pyrazin-3-yl)phenyl)-N-(5-(1,1,1-trifluoro-2-methylpropan-2-yl)isoxazol-3-yl)acetamide] | 0.25 | 0.8 | 2270 | 2.48 | 0.1 | 5.43 | 1.43 | 1.43 | –
Cn1cc(Nc2ccnn3c(-c4ccc(CC(=O)Nc5cc(C(C)(C)C(F)(F)F)on5)cc4)cnc23)cn1 [Compound T-6, 2-(4-(8-((1-methyl-1H-pyrazol-4-yl)amino)imidazo[1,2-b]pyridazin-3-yl)phenyl)-N-(5-(1,1,1-trifluoro-2-methylpropan-2-yl)isoxazol-3-yl)acetamide] | 0.45 | 1.04 | 2180 | 6.2 | 1.05 | 20.9 | 2.38 | 1.24 | –
Cn1cc(-c2cnn3c(-c4ccc(CC(=O)Nc5cc(C(C)(C)C(F)(F)F)on5)c(F)c4)cnc3c2)cn1 [Compound T-7, 2-(2-fluoro-4-(7-(1-methyl-1H-pyrazol-4-yl)imidazo[1,2-b]pyridazin-3-yl)phenyl)-N-(5-(1,1,1-trifluoro-2-methylpropan-2-yl)isoxazol-3-yl)acetamide] | 0.15 | 0.2 | 1820 | 2.3 | 0.19 | 10.8 | 1.15 | 1.15 | –
Cn1cc(-c2cc3ncc(-c4ccc(CC(=O)Nc5cc(C(C)(C)C(F)(F)F)on5)c(F)c4)n3cn2)cn1 [Compound T-8, 2-(2-fluoro-4-(7-(1-methyl-1H-pyrazol-4-yl)imidazo[1,2-c]pyrimidin-3-yl)phenyl)-N-(5-(1,1,1-trifluoro-2-methylpropan-2-yl)isoxazol-3-yl)acetamide] | 0.1 | 0.35 | – | 15.4 | – | – | – | – | < 0.2
Cn1cc(-c2cnn3c(-c4ccc(CC(=O)Nc5cc(C(C)(C)C(F)(F)F)on5)cn4)cnc3c2)cn1 [Compound T-9, 2-(6-(7-(1-methyl-1H-pyrazol-4-yl)imidazo[1,2-b]pyridazin-3-yl)pyridin-3-yl)-N-(5-(1,1,1-trifluoro-2-methylpropan-2-yl)isoxazol-3-yl)acetamide] | 0.24 | 0.48 | > 10000 | 60.8 | 0.51 | 559 | 10.6 | 15.7 | –
Cn1cc(-c2cnc3c(-c4ccc(CC(=O)Nc5cc(C(C)(C)C(F)(F)F)on5)cc4)cnn3c2)cn1 [Compound T-10, 2-(4-(6-(1-methyl-1H-pyrazol-4-yl)pyrazolo[1,5-a]pyrimidin-3-yl)phenyl)-N-(5-(1,1,1-trifluoro-2-methylpropan-2-yl)isoxazol-3-yl)acetamide] | 0.1 | 0.23 | 930 | 9.98 | < 0.1 | 8.15 | 1.83 | 1.02 | –
Cn1cc(-c2ccc3c(-c4ccc(CC(=O)Nc5cc(C(C)(C)C(F)(F)F)on5)cc4)cnn3c2)cn1 [Compound T-11, 2-(4-(6-(1-methyl-1H-pyrazol-4-yl)pyrazolo[1,5-a]pyridin-3-yl)phenyl)-N-(5-(1,1,1-trifluoro-2-methylpropan-2-yl)isoxazol-3-yl)acetamide] | 0.68 | 0.87 | 1400 | 15.4 | 0.2 | 3.66 | 1.73 | 1.12 | –
Cn1cc(-c2cn3ncc(-c4ccc(CC(=O)Nc5cc(C(C)(C)C(F)(F)F)on5)cc4)c3cn2)cn1 [Compound T-12, 2-(4-(6-(1-methyl-1H-pyrazol-4-yl)pyrazolo[1,5-a]pyrazin-3-yl)phenyl)-N-(5-(1,1,1-trifluoro-2-methylpropan-2-yl)isoxazol-3-yl)acetamide] | 0.31 | 1.12 | – | 9.98 | – | – | – | – | –
